Measured values from patent US11219603B2, “Stable dosage form of etidronate-cytarabine conjugate, and use thereof” (MAXWELL BIOTECH GROUP LTD., priority 2015, dated 2022).

Experiment: Thermal behaviour of solutions for lyophilization (DSC)
Format: physicochemical
Details: for Thermal effect (event), in words: wrapped cell reads 'Tgt/endothermicity before alloy expansion'
Description: The thermal properties of the solutions provided for lyophilization were investigated. Differential Scanning calorimetry (DSC) was used to identify the lowest possible transient temperature in the solution throughout the entire lyophilization process, including freezing and dehydration. For the solutions of most pharmaceutical products, this parameter is represented by the glass transition temperature or “Tgt”. All components and their amounts in the solution contribute to the final value of Tgt. This temperature is usually several degrees below the temperature at which the sintered material can crumble during the lyophilization process (collapse temperature, Tc). Without determining the collapse temperature by such methods as cryomicroscopy, the glass transition temperature can be used to select the primary drying temperature. Until the primary drying is completed, the initial drying temperature should be set in such a manner that there are no vials for which the glass transition temperature has been exceeded (or Tc, if known). Otherwise, the structure of the sintered material may get broken. On the one hand, the lyophilization temperature should be close to Tgt, so that the process proceeds efficiently, and on the other hand, it cannot exceed Tgt due to process requirements and qualitative product parameters. Thus, the values of collapse and glass transition temperature are important parameters for calculating safe upper temperature limits, which can be used for lyophilization.
Based on the proposed filling of the vials with the drug (100 mg of active ingredient per vial), potential solutions for filling were prepared. The excipients included sterile water for injection (SWFI), 50 mM succinate and tartrate buffers at pH 5, MgCl2, sulfobutylether β-cyclodextrin (SBEβCD), mannitol and dextran 40. In addition, for solutions containing mannitol, a study of the effect of the annealing stage (the lyophilization process stage when the samples are kept at a certain temperature below the freezing point for a certain period of time) on the improvement the crystallinity of the finished product was performed. […]

[1] = SWFI, MBC-11 25 mg/mL, MgCl2 43.25 mmol/L, Mannitol 25 mg/mL, Annealing at −20° C.
[2] = SWFI, MBC-11 25 mg/mL, MgCl2 43.25 mmol/L, Mannitol 25 mg/mL, Annealing at −24° C.
[3] = SWFI, MBC-11 25 mg/mL, MgCl2 43.25 mmol/L, pH 4.59
[4] = SWFI, MBC-11 50 mg/mL, MgCl2 86.5 mmol/L, pH 4.52
[5] = Succinate buffer, MBC-11 25 mg/mL, MgCl2 86.5 mmol/L, pH 4.52
[6] = Tartrate buffer, MBC-11 25 mg/mL, MgCl2 86.5 mmol/L, pH 4.48

CC(O)(P(=O)(O)O)P(=O)(O)OP(=O)(O)OC[C@H]1O[C@@H](n2ccc(N)nc2=O)[C@@H](O)[C@@H]1O (stereo partly drawn) [MBC-11]
Thermal effect (event): Tgt (SWFI, MBC-11 25 mg/mL, MgCl2 43.25 mmol/L, Dextran-40 5%): −21 °C (Tgt)
Thermal effect (event): possible crystallization (SWFI, MBC-11 25 mg/mL, MgCl2 43.25 mmol/L, Mannitol 25 mg/mL): at −27 °C
Thermal effect (event): crystallization after temperature processing [1]: None
Thermal effect (event): specific endothermicity [1]: −22 °C
Thermal effect (event): crystallization after annealing [2]: None
Thermal effect (event): weak endothermicity [2]: −22 °C
Thermal effect (event): Tgt [3]: −22 °C (Tgt)
Thermal effect (event): endotherm [3]: −21 °C
Thermal effect (event): Tgt (SWFI, MBC-11 25 mg/mL, MgCl2 86.5 mmol/L, Dextran-40 5%): −27 °C (Tgt)
Thermal effect (event), in words (SWFI, MBC-11 25 mg/mL, MgCl2 86.5 mmol/L, Mannitol 25 mg/mL): Tgt/endothermicity
Thermal effect (event): endothermicity (SWFI, MBC-11 25 mg/mL, MgCl2 86.5 mmol/L, pH 4.35): −26 °C
Thermal effect (event): Tgt (SWFI, MBC-11 50 mg/mL, 20% SBEβCD): −26 °C (Tgt)
Thermal effect (event): Tgt (SWFI, MBC-11 50 mg/mL, MgCl2 86.5 mmol/L, Dextran-40 5%): −24 °C (Tgt)
Thermal effect (event), in words (SWFI, MBC-11 50 mg/mL, MgCl2 86.5 mmol/L, Mannitol 25 mg/mL): Tgt/endothermicity
Thermal effect (event): Tgt [4]: −34 °C (Tgt)
Thermal effect (event): endothermicity [4]: −21 °C
Thermal effect (event): Tgt (SWFI, MBC-11 50 mg/mL, MgCl2 173 mmol/L, Dextran-40 5%): −36 °C (Tgt)
Thermal effect (event), in words (SWFI, MBC-11 50 mg/mL, MgCl2 173 mmol/L, Mannitol 25 mg/mL): Tgt/endothermicity
Thermal effect (event): endothermicity (SWFI, MBC-11 50 mg/mL, MgCl2 173 mmol/L, pH 4.23): −26 °C
Thermal effect (event): Tgt (SWFI, MBC-11 50 mg/mL, no excipient, pH 5.2): −21 °C (Tgt)
Thermal effect (event): endothermicity (SWFI, MBC-11 100 mg/mL, MgCl2 173 mmol/L): −22 °C
Thermal effect (event): Tgt (SWFI, MBC-11 100 mg/mL, MgCl2 173 mmol/L, Dextran-40 5%): −29 °C (Tgt)
Thermal effect (event): endothermicity (SWFI, MBC-11 100 mg/mL, MgCl2 350 mmol/L): −26 °C
Thermal effect (event): Tgt (SWFI, MBC-11 100 mg/mL, no excipient, pH 5.4): −21 °C (Tgt)
Thermal effect (event): Tgt (Succinate buffer, MBC-11 25 mg/mL, MgCl2 86.5 mmol/L, Dextran-40 5%): −30 °C (Tgt)
Thermal effect (event), in words (Succinate buffer, MBC-11 25 mg/mL, MgCl2 86.5 mmol/L, Mannitol 25 mg/mL): Tgt/endothermicity
Thermal effect (event): crystallization [5]: −34 °C
Thermal effect (event): endothermicity [5]: −26 °C
Thermal effect (event): Tgt (Tartrate buffer, MBC-11 25 mg/mL, MgCl2 86.5 mmol/L, Dextran-40 5%): −26 °C (Tgt)
Thermal effect (event): Tgt (Tartrate buffer, MBC-11 25 mg/mL, MgCl2 86.5 mmol/L, Mannitol 25 mg/mL): −40 °C (Tgt)
Thermal effect (event): Tgt [6]: −40 °C (Tgt)
Thermal effect (event): crystallization [6]: −30 °C
Thermal effect (event): endothermicity [6]: −22 °C
